Biological target: T1, Gonadotropin-releasing hormone receptor (Homo sapiens, UniProt P30968)
T1 sequence (P30968 whole entry): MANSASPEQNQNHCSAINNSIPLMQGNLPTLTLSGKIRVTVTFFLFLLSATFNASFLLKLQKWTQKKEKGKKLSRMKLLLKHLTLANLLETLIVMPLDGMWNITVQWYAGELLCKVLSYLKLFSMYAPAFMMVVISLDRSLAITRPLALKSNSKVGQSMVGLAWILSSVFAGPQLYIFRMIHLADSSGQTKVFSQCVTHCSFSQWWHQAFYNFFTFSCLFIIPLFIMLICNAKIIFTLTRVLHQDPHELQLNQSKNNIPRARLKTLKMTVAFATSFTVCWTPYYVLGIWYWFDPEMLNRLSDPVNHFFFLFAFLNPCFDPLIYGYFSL
Experiment: Inhibitory constant against cloned human Gonadotropin-releasing hormone receptor stably expressed in HEK293 cells was determined
Format: cell-based

Ki	Compound
120 nM	COc1cccc(-n2c(=O)n(Cc3c(F)cccc3F)c(=O)n(CC(N)c3ccccc3)c2=O)c1 (centres undefined)
380 nM	NC(Cc1c[nH]c2ccccc12)Cn1c(=O)n(Cc2c(F)cccc2F)c(=O)n(-c2c(F)cccc2F)c1=O (centres undefined)
1.1 nM	COc1cccc(-c2c(C)n(Cc3c(F)cccc3F)c(=O)n(C[C@@H](C)N(C)CCc3ccccn3)c2=O)c1
> 20000 nM	COc1cccc(-c2c(C)n(CCN(C)CCc3ccccn3)c(=O)n(Cc3c(F)cccc3F)c2=O)c1
220 nM	N[C@@H](Cn1c(=O)n(Cc2c(F)cccc2F)c(=O)n(-c2c(F)cccc2F)c1=O)c1ccccc1
37 nM	COc1cccc(-n2c(=O)n(Cc3c(F)cccc3F)c(=O)n(C[C@H](N)c3ccccc3)c2=O)c1
410 nM	N[C@@H](Cn1c(=O)n(Cc2c(F)cccc2F)c(=O)n(-c2ccc3nsnc3c2)c1=O)c1ccccc1
89 nM	N[C@@H](Cn1c(=O)n(Cc2c(F)cccc2F)c(=O)n(-c2ccccc2F)c1=O)c1ccccc1
4200 nM	COc1cccc(-n2c(=O)n(CCN(C)CCc3ccccn3)c(=O)n(Cc3c(F)cccc3F)c2=O)c1

— ChEMBL document CHEMBL1144289, “A convenient one-pot synthesis of asymmetric 1,3,5-triazine-2,4,6-triones and its application towards a novel class of gonadotropin-releasing hormone receptor antagonists” (Bioorg Med Chem Lett, 2005)
